Results as given in EPA's ToxValDB 9.5 (doi:10.2903/j.efsa.2014.3881).

Columns and labels:
Anas platyrhynchos = details: reproductive
Apis mellifera = details: acute, mortality
Canidae = details: chronic; duration: 1 years; oral; Dog Other; body weight
Colinus virginianus = details: acute; oral; diet; mortality
Coturnix japonica = details: acute; oral; mortality
Daphnia magna = details: chronic/long-term; duration: 21 days; reproduction
Mus musculus = details: chronic; duration: 18 months; body weight

Work on COC(=O)c1ccc(C(F)(F)F)nc1S(=O)(=O)[N-]C(=O)Nc1nc(OC)cc(OC)n1.[Na+] [Flupyrsulfuron-methyl sodium] yielded an NOEL (Anas platyrhynchos) of 26 mg/kg-day, an LD50 (Apis mellifera; dermal) of over 250 µg/piece and an LD50 (Apis mellifera; oral, unspecified) of 119 µg/piece. It also gave an NOAEL (Canidae) of 13.6 mg/kg-day, an LD50 (Colinus virginianus) of over 1610 mg/kg-day and an LD50 (Coturnix japonica) of over 2250 mg/kg-day. The NOEC (Daphnia magna) was 16 mg/L, the NOAEL (Mus musculus) was 3.51 mg/kg-day and the LC50 (Oncorhynchus mykiss; acute, duration: 96 hours, mortality) was 470 µg/mL. For the same compound, the NOEC (Oncorhynchus mykiss; chronic/long-term, duration: 90 days, growth) was 9.2 mg/L, the LD50 (Rattus norvegicus; acute, mortality) was over 2500 mg/kg-day and the NOAEL (Rattus norvegicus; developmental, development) was 20 mg/kg-day. For the same compound, the LC50 (Tagia sp.; acute, duration: 14 days, mortality) was over 1000 mg/kg and the NOEC (Tagia sp.; chronic/long-term, duration: 8 weeks) was 0.065 mg/kg.
